Results on five compounds are retold here after patent US20190145953A1, “METHODS AND MATERIALS FOR ASSESSING INTESTINAL PERMEABILITY” (Mayo Foundation for Medical Education and Research, priority 2016, published 2019).

The conditions of data set [1]: human, in vivo.
Experimental: The following was performed to evaluate safety and effectiveness of oral nutritional therapy with serum-derived bovine immunoglobulin (SBI) on symptoms, epithelial barrier function, and mucosal expression of pivotal genes in small intestinal mucosa (SI) in patients with IBS-D. This open-label pilot study evaluated effects of SBI, 5.0 g twice daily for 8 weeks, in 15 patients with IBS-D (Rome III) on symptoms, tryptophan metabolism (kynurenine to tryptophan ratio), intestinal permeability [measured by two sugars (^13C-mannitol and lactulose) urine excretion: 0-2 hours (SI) and 2-8 hours (SI and colon)] and distal duodenal mucosal mRNA expression of pivotal genes including tight junction, secretory mechanisms, tissue repair proteins and chemokines. Bowel function and abdominal pain (worst and average) were evaluated using a daily diary including the Bristol Stool Form Scale, and bile acid homeostasis by fasting serum FGF-19 and 7αC4. Statistical analysis was based on ITT principles using paired tests (comparing baseline with results of therapy over 8 weeks or in final 2 weeks) and included imputation for missing data for one patient.
Data set [2] is classed as in vivo, human. As to the method:
24 healthy volunteers (12 females) aged 18-65 years are recruited. Those using NSAIDs, oral corticosteroids, artificial sweeteners (Splenda, aspartame), lactulose, mannitol, or medications affecting gastrointestinal transit are excluded. All 24 participants undergo a baseline urinary excretion assay using the three saccharides (100 mg ^13C mannitol, 100 mg ^12C mannitol, and 1000 mg lactulose) dissolved in 250 mL of water. 500 mL of water is administered 30 minutes after the sugars are ingested to aid in the production of urine. Participants are allowed regular amounts of water throughout the study, and no standardized meals are provided. Cumulative urine samples for 0-2 hours are collected while they are in the CRU and stored. Two containers are provided for the cumulative 2-8 hour collection and cumulative 8-24 hour collection. Participants are instructed to return these collections the following day. The collections are subjected to HPLC-MS for quantitative estimation of the sugars.
These participants receive 75 mg of Indomethacin orally 8 hour and 30 minutes prior to a second urinary excretion assay using the same three sugars. Finally, these participants undergo a third assay after 4 weeks from the end of the second assay in the absence of any indomethacin or other NSAIDs or perturbations. All three assays are done using the same protocol and urinary collections. Additionally, these participants undergo an upper endoscopy with duodenal biopsies at baseline and after Indomethacin challenge. The ^13C mannitol-assay based urinary excretion findings are correlated with histology findings on light microscopy and with ex vivo mucosal barrier function/permeability. For this, tw freshly obtained biopsies are mounted in 4 mL Ussing chambers (Physiological Instruments, California, USA) exposing a 0.03 cm^2 area. Transepithelial resistance is measured using Ag/AgCl electrodes with agar-salt bridges and current delivered with platinum electrodes. Macromolecular flux across biopsies are studied using FITC Dextran (4 kDa, Molecular Probes, New York). At 30-minute intervals for a total of 3 hours, basal compartment fluorescence are analyzed.
At each visit, baseline excretion of ^12C mannitol was higher than the ^13C mannitol (p<0.0001) with 5 of 73 subjects excreting >10 mg of ^12C mannitol prior to test dose administration. At visit 1, one subject excreted 62 mg of ^12C mannitol, which dropped to 28 mg after test dose administration.
This recovered completely at visit 3. Both low and high dose Indomethacin had similar effects. […] It is possible that intestinal microflora can influence the L:M based excretion assay for intestinal permeability. To test this, seven patients underwent a fourth testing following bowel prep with MoviPrep. […] This could reflect increased transit after the bowel prep resulting in less contact time between the sugar and the absorptive surface area.

The conditions of data set [3]: human, in vivo. As to the method:
The following was performed to determine if administration of ^13C-mannitol can be used to measure intestinal permeability. Ten healthy volunteers (five females) received oral sugars after 8 hours of fasting. Those volunteers using tobacco, NSAIDs, oral corticosteroids, sweeteners, lactulose, mannitol, or medications affecting gastrointestinal transit were excluded. Three saccharides (100 mg of ^13C-mannitol, 100 mg of ^12C-mannitol (regular mannitol), and 1000 mg of ^12C-lactulose (regular lactulose)) dissolved in 250 mL of water were administered. 0-2 hour cumulative mannitol and 8-24 hour cumulative lactulose or mannitol excretion were measured to assess small intestinal and colonic permeability, respectively. After baseline urine collection, collections were pooled for 0-2 hours, 2-8 hours, and 8-24 hours following administration of test sugars. High performance liquid chromatography-tandem mass spectrometry was performed to determine urinary sugar concentrations. Cumulative excretions and lactulose:mannitol (L:M) ratios (ratio of fractional excretion) were calculated. Mann-Whitney test was used for statistical analysis.
This is another data set of the same source.

A short description of data set [4]: Cumulative urinary excretion of oral sugars by HPLC-MS in IBS-C patients and healthy volunteers (Example 3). The class given is in vivo, human. As to the method:
The following was performed to determine duodenal and colonic barrier function and endotoxin activity in females with IBS-C in comparison to healthy. 16 IBS-C (Rome III) patients and 13 matched healthy volunteers (females) were given oral lactulose, ^12C mannitol and ^13C mannitol measured cumulatively over 0-2 and 8-24 hours by HPLC-MS. 10 biopsies were obtained from duodenum and sigmoid colon. Mucosal transepithelial resistance (TER), FITC dextran (4 KDa), and E. coli K12 BioParticle flux were measured in Ussing chambers. Endotoxin activity (blood) was measured towards gram-negative bacterial lipopolysaccharide. Unpaired 2-sided t-tests were used for comparisons.

The subject of the next data set is colonic bacteria. To be noted: in vivo, po; cited from earlier work.
The mark [5] stands for this setting: Indomethacin challenge, p=0.004.

Take ^13C-mannitol: in data set [1], the “Excretion at baseline in IBS-D patients vs 8 healthy controls” value is listed as “did not differ”. Besides, in data set [2] (in vivo), the Baseline excretion result is on record as “nearly undetectable” and the “Change of excretion in the 0-2 hr interval compared with baseline” value is “increased in all cases”. In data set [3], the “L:M ratio: Mean (SEM), 0-2 hours” value is reported as 0.007; the “L:M ratio: Mean (SEM), 2-8 hours” value worked out at 0.01; the “L:M ratio: Mean (SEM), 8-24 hours” value is 0.01; the “Mean lower baseline contamination vs 12C mannitol” value was determined as 20 fold. Also, the “Participants with disproportionately high baseline excretion” value in data set [3] is “none”.

Consider `OC[C@H]1O[C@@H](O[C@@H]2[C@@H](CO)OC(O)(CO)[C@H]2O)[C@H](O)[C@@H](O)[C@H]1O` (mixture of isomers) [lactulose], for which the entries for the “0-2 hr cumulative urinary excretion (mg), mean (SEM)” value in data set [4] (Healthy Volunteers (n=11)) and in data set [4] (IBS-C (n=16)) were 0.99(0.12) mg and 1.12(0.19) mg, respectively. The entries for the “8-24 hr cumulative urinary excretion (mg), mean (SEM)” value in data set [4] (Healthy Volunteers (n=11)) and in data set [4] (IBS-C (n=16)) were 0.72(0.31) mg and 1.06(0.55) mg, respectively.

Take `OC[C@@H](O)[C@@H](O)[C@H](O)[C@H](O)CO` [^12C-mannitol]: in data set [2] (in vivo), the Baseline excretion result is “higher”; the “Change of excretion in the 0-2 hr interval compared with baseline” value was “four subjects exhibited no significant increase”; the “Cumulative (0-24h) mean recovery, comparison 12C vs 13C mannitol” value is given as “significantly higher”; the “Excretion of one subject after test dose administration” value is 28 mg. Besides, in data set [2] (in vivo), the “Excretion of one subject at baseline” value came out at 62 mg and the “Subjects excreting >10 mg prior to test dose administration” value is reported as 5 of 73. Moreover, in data set [3], the “L:M ratio: Mean (SEM), 0-2 hours” value came out at 0.006; the “L:M ratio: Mean (SEM), 2-8 hours” value was determined as 0.009; the “L:M ratio: Mean (SEM), 8-24 hours” value is given as 0.002; the “Participants with disproportionately high baseline excretion” value is “Three of the ten”.

For `OC[C@@H](O)[C@@H](O)[C@H](O)[C@H](O)CO` [mannitol], the “Fraction of orally ingested mannitol metabolized by colonic bacteria” value in the data set with colonic bacteria is on record as “about 75%”.

As for `COc1ccc2c(c1)c(CC(=O)O)c(C)n2C(=O)c1ccc(Cl)cc1` [Indomethacin], the “0-2h lactulose excretion compared to baseline (visit 1)” value in data set [2] (Indomethacin challenge, p<0.0001) was “increased”. Moreover, in data set [2] (setting [5]), the “2-8h lactulose excretion compared to baseline (visit 1)” value is recorded as “increased” and the “8-24h lactulose excretion compared to baseline (visit 1)” value is “increased”. Also, the “12C or 13C mannitol excretion with Indomethacin treatment” value in data set [2] (either excretion time-point) is “did not increase”.
